{
  "source": "patent US11230543B2",
  "about": "“Biaryl monobactam compounds and methods of use thereof for the treatment of bacterial infections” (priority 2015, dated 2022)",
  "type_in_all_cases": "cell-based",
  "conditions_in_all_cases": "lowest concentration inhibiting 95% of bacterial growth; in the presence of β lactamase inhibitor Relebactam 4 μg/mL; 35±2° C. for 22 hours; tested range 100 μM to 0.098 μM",
  "key": {"[1]": {"tested_on": "Escherichia coli expressing NDM-1 (CLB30016)", "assay": "Antibiotic activity: growth inhibitory concentration (OD600), Escherichia coli CLB30016", "method": "(§1) Antibiotic Activity: Determination of Growth Inhibitory Concentration\n(§2) The concentrations of compounds required to inhibit the growth of various strains of bacteria were determined in an assay that assessed bacterial growth by measuring optical density at 600 nm (OD600). The bacterial strains tested included the clinical strains Escherichia coli expressing NDM-1 (CLB30016), Klebsiella pneumoniae expressing KPC-1 (CL6569), Acinetobacter baumannii expressing TEM-1, AmpC, and Oxa-24/40 (CL6188) and Pseudomonas aeruginosa expressing AmpC (CL5701). All compounds were tested in the presence of a β lactamase inhibitor (BLi, Relebactam) in 384-well microplates. The clinical strains were stored as frozen single use stocks, thawed and diluted into 1.1× cation-adjusted Mueller-Hinton II broth to achieve approximately 2×10^5 CFU/mL. Test compounds were dissolved in DMSO and diluted 1:50 in the assay, resulting in a final concentration range of 100 μM to 0.098 μM. […] At the end of the incubation, absorbance at 600 nm was determined using a spectrophotometer. Inhibition was quantitated by identifying the lowest concentration of test compound that was required to inhibit 95% of the growth of the bacteria. The results for Examples 1-126 are reported in Table I, expressed as the concentration of compound that inhibited 95% of bacterial growth (Minimum Inhibitory Threshold Concentration; MITC95)."}, "[2]": {"tested_on": "Klebsiella pneumoniae expressing KPC-1 (CL6569)", "assay": "Antibiotic activity: growth inhibitory concentration (OD600), Klebsiella pneumoniae CL6569", "procedure,_shortened": "(§3)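 Growth inhibition by OD600 after 22 hours incubation at 35±2° C, reported as lowest concentration inhibiting 95% of growth (MITC95). Final compound range 100 μM to 0.098 μM, always combined with β-lactamase inhibitor relebactam (4 μg/mL final); inoculum ~2×10^5 CFU/mL in cation-adjusted Mueller-Hinton II broth.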"}, "[3]": {"tested_on": "Pseudomonas aeruginosa expressing AmpC (CL5701)", "assay": "Antibiotic activity: growth inhibitory concentration (OD600), Pseudomonas aeruginosa CL5701", "procedure,_shortened": "as §3"}, "[4]": {"tested_on": "Acinetobacter baumannii expressing TEM-1, AmpC, and Oxa-24/40 (CL6188)", "assay": "Antibiotic activity: growth inhibitory concentration (OD600), Acinetobacter baumannii CL6188", "method": "as §1, §2"}},
  "note": "Structures can show the parent of a compound that is named as a salt.",
  "data": [
    {"compound": "C[n+]1cc(-c2ccc(OC[C@H](O/N=C(\\C(=O)N[C@@H]3C(=O)N(OS(=O)(=O)[O-])C3(C)C)c3csc(N)n3)C(=O)O)cc2)c(N)n1CCCN", "note": "[Example 50, (S)-3-((Z)-2-(((S)-2-(4-(5-Amino-1-(3-aminopropyl)-2-methyl-1H-pyrazol-2-ium-4-yl)phenoxy)-1-carboxyethoxy)imino)-2-(2-aminothiazol-4-yl)acetamido)-2,2-dimethyl-4-oxoazetidin-1-yl sulfate]", "values": [
      {"measurement": "EC_CLB30016 MITC95", "setting": "[1]", "result": 6.25, "unit": "µM"},
      {"measurement": "KP_CL6569 MITC95", "setting": "[2]", "result": 0.3906, "unit": "µM"},
      {"measurement": "PA_CL5701 MITC95", "setting": "[3]", "result": 6.25, "unit": "µM"},
      {"measurement": "AB_CL6188 MITC95", "setting": "[4]", "result": 3.125, "unit": "µM"}
    ]},
    {"compound": "(S)-3-((Z)-2-(((S)-2-(4-(2-(3-amino-2-fluoro-2λ^3-propyl)-1-(azetidin-3-ylmethyl)-1H-pyrazol-2-ium-4-yl)phenoxy)-1-carboxyethoxy)imino)-2-(2-aminothiazol-4-yl)acetamido)-2,2-dimethyl-4-oxoazetidin-1-yl sulfate [Example 121]", "values": [
      {"measurement": "EC_CLB30016 MITC95", "setting": "[1]", "result": 6.25, "unit": "µM"},
      {"measurement": "KP_CL6569 MITC95", "setting": "[2]", "result": 0.1953, "unit": "µM"},
      {"measurement": "PA_CL5701 MITC95", "setting": "[3]", "result": 1.563, "unit": "µM"},
      {"measurement": "AB_CL6188 MITC95", "setting": "[4]", "result": 1.563, "unit": "µM"}
    ]},
    {"compound": "CN(CC(O/N=C(\\C(=O)N[C@@H]1C(=O)N(OS(=O)(=O)[O-])C1(C)C)c1csc(N)n1)C(=O)O)c1ccc(-c2cn(CCCN)[n+](C)c2)cc1", "note": "(stereo partly drawn) [Example 92, (3S)-3-(2-((2-((4-(1-(3-aminopropyl)-2-methyl-1H-pyrazol-2-ium-4-yl)phenyl)(methyl)amino)-1-carboxyethoxy)imino)-2-(2-aminothiazol-4-yl)acetamido)-2,2-dimethyl-4-oxoazetidin-1-yl sulfate]", "values": [
      {"measurement": "KP_CL6569 MITC95", "setting": "[2]", "result": 6.25, "unit": "µM"},
      {"measurement": "PA_CL5701 MITC95", "setting": "[3]", "result": 100, "unit": "µM"}
    ]},
    {"compound": "C[n+]1cc(-c2c(F)cc(OC[C@H](O/N=C(\\C(=O)N[C@@H]3C(=O)N(OS(=O)(=O)O)C3(C)C)c3csc(N)n3)C(=O)O)cc2F)cn1CCCN.O=C(O)C(F)(F)F", "note": "[Example 3, (S)-3-((Z)-2-(((S)-2-(4-(1-(3-aminopropyl)-2-methyl-1H-pyrazol-2-ium-4-yl)-3,5-difluorophenoxy)-1-carboxyethoxy)imino)-2-(2-aminothiazol-4-yl)acetamido)-2,2-dimethyl-4-oxoazetidin-1-yl sulfate compound with 2,2,2-trifluoroacetic acid (1:1)]", "values": [
      {"measurement": "KP_CL6569 MITC95", "setting": "[2]", "result": 0.39, "unit": "µM"},
      {"measurement": "PA_CL5701 MITC95", "setting": "[3]", "result": 6.25, "unit": "µM"}
    ]},
    {"compound": "C[n+]1cc(-c2ccc(OC[C@H](O/N=C(\\C(=O)N[C@@H]3C(=O)N(OS(=O)(=O)[O-])C3(C)C)c3csc(N)n3)C(=O)O)cc2)ccc1NCC1(N)CC1", "note": "[Example 74, (S)-3-((Z)-2-(((S)-2-(4-(6-(((1-aminocyclopropyl)methyl)amino)-1-methylpyridin-1-ium-3-yl)phenoxy)-1-carboxyethoxy)imino)-2-(2-aminothiazol-4-yl)acetamido)-2,2-dimethyl-4-oxoazetidin-1-yl sulfate]", "values": [
      {"measurement": "KP_CL6569 MITC95", "setting": "[2]", "result": 0.1953, "unit": "µM"},
      {"measurement": "PA_CL5701 MITC95", "setting": "[3]", "result": 6.25, "unit": "µM"}
    ]},
    {"compound": "Cn1c(-c2ccc(OC[C@H](O/N=C(\\C(=O)N[C@@H]3C(=O)N(OS(=O)(=O)O)C3(C)C)c3csc(N)n3)C(=O)O)cc2F)cn(CCCN)c1=N", "note": "[Example 96, (S)-3-(4-(1-(3-aminopropyl)-2-imino-3-methyl-2,3-dihydro-1H-imidazol-4-yl)-3-fluorophenoxy)-2-((((Z)-1-(2-aminothiazol-4-yl)-2-(((S)-2,2-dimethyl-4-oxo-1-(sulfooxy)azetidin-3-yl)amino)-2-oxoethylidene)amino)oxy)propanoic acid]", "values": [
      {"measurement": "KP_CL6569 MITC95", "setting": "[2]", "result": 0.3906, "unit": "µM"},
      {"measurement": "PA_CL5701 MITC95", "setting": "[3]", "result": 6.25, "unit": "µM"}
    ]},
    {"compound": "C[n+]1cc(OC[C@H](O/N=C(\\C(=O)N[C@@H]2C(=O)N(OS(=O)(=O)O)C2(C)C)c2csc(N)n2)C(=O)O)ccc1-c1cnn(CCCN)c1.O=C([O-])C(F)(F)F", "note": "[Example 26, 2-(1-(3-aminopropyl)-1H-pyrazol-4-yl)-5-((S)-2-((((Z)-1-(2-aminothiazol-4-yl)-2-(((S)-2,2-dimethyl-4-oxo-1-(sulfooxy)azetidin-3-yl)amino)-2-oxo-ethylidene)amino)oxy)-2-carboxyethoxy)-1-methylpyridin-1-ium 2,2,2-trifluoroacetate]", "values": [
      {"measurement": "KP_CL6569 MITC95", "setting": "[2]", "result": 1.563, "unit": "µM"},
      {"measurement": "PA_CL5701 MITC95", "setting": "[3]", "result": 50, "unit": "µM"}
    ]},
    {"compound": "C[n+]1cc(-c2ccc(OC[C@](C)(O/N=C(\\C(=O)N[C@@H]3C(=O)N(OS(=O)(=O)[O-])C3(C)C)c3csc(N)n3)C(=O)O)cc2F)cn1CCCN", "note": "[Example 105, (S)-3-((Z)-2-((((Sn-1-(4-(1-(3-aminopropyl)-2-methyl-1H-pyrazol-2-ium-4-yl)-3-fluorophenoxy)-2-carboxypropan-2-yl)oxy)imino)-2-(2-aminothiazol-4-yl)acetamido)-2,2-dimethyl-4-oxoazetidin-1-yl sulfate]", "values": [
      {"measurement": "KP_CL6569 MITC95", "setting": "[2]", "result": 0.3906, "unit": "µM"},
      {"measurement": "PA_CL5701 MITC95", "setting": "[3]", "result": 3.125, "unit": "µM"}
    ]}
  ]
}
